In ChEMBL document CHEMBL5113481, “Design, synthesis and biological evaluation of quinoline-2-carbonitrile-based hydroxamic acids as dual tubulin polymerization and histone deacetylases inhibitors” (Eur J Med Chem, 2022):
Values after ≈ are worked out from the molar mass of the structure shown. Each block holds one molecule with its values, some of them ahead of it. Active and inactive are the calls of the source. The rule behind the calls is not given here.

Legend:
HCT-116 = assay: Antiproliferative activity against human HCT-116 cells after 72 hrs by CellTiter Glo assay; assay type: functional, cell-based; settings: for GI50: time 72 hrs
NCI-N87 = assay: Antiproliferative activity against human NCI-N87 cells after 72 hrs by CellTiter Glo assay; assay type: functional, cell-based; settings: NCI-N87, 72 h
K562 [1] = assay: Antiproliferative activity against human K562 cells after 72 hrs by CellTiter Glo assay; assay type: functional, cell-based; settings: K562, 72 h
K562 [2] = assay: Antiproliferative activity against imatinib-resistant human K562 cells over expressing MDR1 after 72 hrs by CellTiter Glo assay; assay type: functional, cell-based; settings: K562, 72 h
MIA PaCa-2 = assay: Antiproliferative activity against human MIA PaCa-2 cells after 72 hrs by CellTiter Glo assay; assay type: functional, cell-based; settings: MIA PaCa-2, 72 h
SK-OV-3 = assay: Antiproliferative activity against human SK-OV-3 cells after 72 hrs by CellTiter Glo assay; assay type: functional, cell-based; settings: SK-OV-3, 72 h
A549 = assay: Antiproliferative activity against human A549 cells after 72 hrs by CellTiter Glo assay; assay type: functional, cell-based; settings: A549, 72 h
MCF7 = assay: Antiproliferative activity against human MCF7 cells after 72 hrs by CellTiter Glo assay; assay type: functional, cell-based; settings: MCF7, 72 h
MDA-MB-231 = assay: Antiproliferative activity against human MDA-MB-231 cells after 72 hrs by CellTiter Glo assay; assay type: functional, cell-based; settings: MDA-MB-231, 72 h
HT-29 [3] = assay: Antiproliferative activity against human HT-29 cells after 72 hrs by CellTiter Glo assay; assay type: functional, cell-based; settings: HT-29, 72 h
HT-29 [4] = assay: Cell cycle arrest in human HT-29 cells assessed as accumulation of cells in G2/M phase at 0.1 to 5 nM measured after 24 hrs by PI staining based flow cytometry method; assay type: functional; settings: dose 0.1-5 nM, DDE = dose-dependent effect
HT-29 [5] = assay: Cell cycle arrest in human HT-29 cells assessed as accumulation of cells in G2/M phase at 5 nM measured after 24 hrs by PI staining based flow cytometry method; assay type: functional
HT-29 [6] = assay: Induction of mitochondrial dysfunction in human HT-29 cells at 2 nM measured after 48 hrs by JC-1 staining based flow cytometry; assay type: functional, cell-based
[7] = target: T1, Protein deacetylase HDAC6 (Homo sapiens, UniProt Q9UBN7); assay: Inhibition of HDAC6 (unknown origin) measured by fluorometry assay
T1 sequence (Q9UBN7 whole entry): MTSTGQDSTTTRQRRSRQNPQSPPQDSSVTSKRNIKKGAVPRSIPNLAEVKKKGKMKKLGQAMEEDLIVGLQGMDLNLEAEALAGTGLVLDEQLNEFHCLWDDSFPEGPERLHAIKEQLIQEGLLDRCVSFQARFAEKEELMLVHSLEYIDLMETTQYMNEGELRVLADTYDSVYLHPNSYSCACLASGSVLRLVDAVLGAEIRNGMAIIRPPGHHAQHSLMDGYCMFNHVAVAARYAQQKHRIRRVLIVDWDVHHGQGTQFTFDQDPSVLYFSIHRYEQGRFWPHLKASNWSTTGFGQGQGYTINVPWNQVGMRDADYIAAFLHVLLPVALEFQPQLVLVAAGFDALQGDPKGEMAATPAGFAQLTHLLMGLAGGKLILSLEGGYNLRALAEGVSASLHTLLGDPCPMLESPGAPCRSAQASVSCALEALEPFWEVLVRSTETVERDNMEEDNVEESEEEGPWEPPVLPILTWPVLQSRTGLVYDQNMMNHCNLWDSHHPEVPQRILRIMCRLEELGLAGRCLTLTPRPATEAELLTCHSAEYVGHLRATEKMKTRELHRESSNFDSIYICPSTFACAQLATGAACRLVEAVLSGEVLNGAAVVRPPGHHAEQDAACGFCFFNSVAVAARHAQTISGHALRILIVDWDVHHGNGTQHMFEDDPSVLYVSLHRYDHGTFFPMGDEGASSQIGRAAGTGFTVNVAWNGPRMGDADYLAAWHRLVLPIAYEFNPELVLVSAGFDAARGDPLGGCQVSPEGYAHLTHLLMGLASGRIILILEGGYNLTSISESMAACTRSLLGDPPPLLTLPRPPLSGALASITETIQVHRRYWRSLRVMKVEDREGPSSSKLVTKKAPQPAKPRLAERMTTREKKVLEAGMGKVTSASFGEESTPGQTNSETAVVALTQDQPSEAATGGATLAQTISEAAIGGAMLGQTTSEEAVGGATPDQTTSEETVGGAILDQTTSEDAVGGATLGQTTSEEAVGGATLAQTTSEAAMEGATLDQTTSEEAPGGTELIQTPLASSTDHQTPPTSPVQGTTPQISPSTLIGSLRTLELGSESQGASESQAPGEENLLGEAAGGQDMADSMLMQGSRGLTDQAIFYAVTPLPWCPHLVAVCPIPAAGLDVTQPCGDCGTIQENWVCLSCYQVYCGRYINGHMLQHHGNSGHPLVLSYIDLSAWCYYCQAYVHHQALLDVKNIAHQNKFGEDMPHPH

Histone deacetylase 8 = target: T2, Histone deacetylase 8 (Homo sapiens, UniProt Q9BY41); assay: Inhibition of HDAC8 (unknown origin) measured by fluorometry assay
T2 sequence (Q9BY41 whole entry): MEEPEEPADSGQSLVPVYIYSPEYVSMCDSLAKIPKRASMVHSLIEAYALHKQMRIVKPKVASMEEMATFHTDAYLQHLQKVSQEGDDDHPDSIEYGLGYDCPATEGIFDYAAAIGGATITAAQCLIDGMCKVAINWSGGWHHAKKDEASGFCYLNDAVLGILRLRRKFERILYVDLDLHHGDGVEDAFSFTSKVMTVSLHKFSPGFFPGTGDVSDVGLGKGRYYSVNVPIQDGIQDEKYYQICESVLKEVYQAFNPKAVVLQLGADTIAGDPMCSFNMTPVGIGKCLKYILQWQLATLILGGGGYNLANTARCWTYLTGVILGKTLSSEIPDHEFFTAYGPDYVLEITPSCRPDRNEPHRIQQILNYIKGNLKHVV

Histone deacetylase 11 = target: T3, Histone deacetylase 11 (Homo sapiens, UniProt Q96DB2); assay: Inhibition of HDAC11 (unknown origin) measured by fluorometry assay
T3 sequence (Q96DB2 whole entry): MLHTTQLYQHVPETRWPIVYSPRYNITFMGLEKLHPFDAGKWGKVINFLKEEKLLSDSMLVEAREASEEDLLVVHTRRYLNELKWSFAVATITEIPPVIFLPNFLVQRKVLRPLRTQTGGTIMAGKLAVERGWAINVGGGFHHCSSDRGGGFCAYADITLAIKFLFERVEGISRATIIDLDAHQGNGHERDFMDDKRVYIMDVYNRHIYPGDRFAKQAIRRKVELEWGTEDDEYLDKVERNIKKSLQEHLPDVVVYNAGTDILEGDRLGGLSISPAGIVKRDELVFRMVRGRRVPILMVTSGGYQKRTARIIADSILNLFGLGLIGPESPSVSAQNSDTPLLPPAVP

[8] = Solubility of compound in water; assay type: physicochemical
[9] = Metabolic stability in rat liver microsomes assessed as half-life measured upto 6 hrs in presence of NADPH generating system by HPLC-MS/MS analysis; assay type: ADME, Microsome
[10] = Metabolic stability in rat liver microsomes assessed as intrinsic clearance per mg protein measured upto 6 hrs in presence of NADPH generating system by HPLC-MS/MS analysis; assay type: ADME, Microsome; settings: read-out: CLH
[11] = Metabolic stability in human liver microsomes assessed as half-life measured upto 6 hrs in presence of NADPH generating system by HPLC-MS/MS analysis; assay type: ADME, Microsome
[12] = Metabolic stability in human liver microsomes assessed as intrinsic clearance per mg protein measured upto 6 hrs in presence of NADPH generating system by HPLC-MS/MS analysis; assay type: ADME, Microsome; settings: read-out: CLH
Tubulin = assay: Inhibition of tubulin polymerization in human HeLa cells assessed as microtubule network polymerization after 30 mins by immunofluorescence analysis; assay type: cell-based

GI50 (HCT-116; Homo sapiens, HCT-116): 34.4 nM
Structure (SMILES): COc1ccc(N(C)c2cc(C#N)nc3ccccc23)cc1/C=C/CCC(=O)NO

GI50 (HCT-116; Homo sapiens, HCT-116): 24.6 nM
Structure (SMILES): COc1ccc(N(C)c2cc(C#N)nc3ccccc23)cc1I

GI50 (HCT-116): 35 nM
IC50 (K562 [1]): 260 nM
IC50 (K562 [2]): 90 nM
IC50 (MIA PaCa-2): 200 nM
IC50 (SK-OV-3): 100 nM
IC50 (A549): 80 nM
IC50 (MCF7): 54 nM
IC50 (MDA-MB-231): 91 nM
IC50 (HT-29 [3]): 55 nM
Structure (SMILES): CC(/C=C/C(=O)NO)=C\[C@@H](C)C(=O)c1ccc(N(C)C)cc1 [TRICHOSTATIN]
IC50 (NCI-N87): 58 nM

GI50 (HCT-116; Homo sapiens, HCT-116): 0.6 nM
IC50 (K562 [1]): 0.38 nM
IC50 (K562 [2]): 1.63 nM
IC50 (MIA PaCa-2): 1.1 nM
IC50 (SK-OV-3): 0.3 nM
IC50 (A549): 0.51 nM
IC50 (MCF7): 0.8 nM
IC50 (MDA-MB-231): 0.55 nM
IC50 (HT-29 [3]): 0.66 nM
IC50 [7]: 2000 nM
IC50 (Histone deacetylase 8): 280 nM
IC50 (Histone deacetylase 11): 3200 nM
solubility [8]: 65 µg/mL (≈ 178 µM)
half-life [9]: 3.53 h
microsomal CLint [10]: 3.27 µL/min/mg
half-life [11]: 9 h
microsomal CLint [12]: 1.28 µL/min/mg
Structure (SMILES): COc1ccc(N(C)c2nc(C)nc3ccccc23)cc1/C=C/C(=O)NO
IC50 (NCI-N87): 0.17 nM
Activity (HT-29 [4]): Dde
Activity (HT-29 [5]): >95%
Activity (HT-29 [6]): Active

GI50 (HCT-116; Homo sapiens, HCT-116): 381 nM
Structure (SMILES): COc1ccc(N(C)c2cc(C#N)nc3ccccc23)cc1OCCCC(=O)NO

GI50 (HCT-116; Homo sapiens, HCT-116): 2600 nM
IC50 (K562 [1]): 2010 nM
IC50 (K562 [2]): 2200 nM
IC50 (MIA PaCa-2): > 20000 nM
IC50 (A549): 2000 nM
IC50 (MCF7): 2980 nM
IC50 (HT-29 [3]): > 10000 nM
Structure (SMILES): COc1ccc(Cn2ccc3ccc(C(=O)NO)cc32)cc1
IC50 (NCI-N87): 1500 nM

GI50 (HCT-116; Homo sapiens, HCT-116): 64.5 nM
Structure (SMILES): COc1ccc(N(C)c2cc(C#N)nc3ccccc23)cc1OCC(=O)NO

GI50 (HCT-116; Homo sapiens, HCT-116): 1.5 nM
Structure (SMILES): COc1ccc(N(C)c2nc(C#N)nc3ccccc23)cc1/C=C/C(=O)NO

Structure (SMILES): COc1ccc(/C=C\c2cc(OC)c(OC)c(OC)c2)cc1O [COMBRETASTATIN A4]
IC50 (NCI-N87): 11 nM
GI50 (HCT-116; Homo sapiens, HCT-116): 2.4 nM
IC50 (K562 [2]): 25 nM
IC50 (MIA PaCa-2): 8 nM
IC50 (SK-OV-3): 6 nM
IC50 (MCF7): 172 nM
IC50 (HT-29 [3]): > 10000 nM

GI50 (HCT-116; Homo sapiens, HCT-116): 12.5 nM
Structure (SMILES): COc1ccc(N(C)c2nc(C)nc3ccccc23)cc1/C=C/C(=O)NOC1CCCCO1 (stereo unspecified)

Structure (SMILES): C=C(c1ccc(OC)c(O)c1)c1cc(OC)c(OC)c(OC)c1
IC50 (NCI-N87): 14 nM
GI50 (HCT-116; Homo sapiens, HCT-116): 2.2 nM
IC50 (K562 [2]): 3 nM
IC50 (SK-OV-3): 5 nM
IC50 (A549): 12 nM
IC50 (Tubulin): 6 nM
half-life [9]: 4.24 h
microsomal CLint [10]: 2.73 µL/min/mg
half-life [11]: 12 h
microsomal CLint [12]: 0.96 µL/min/mg

GI50 (HCT-116; Homo sapiens, HCT-116): 30.3 nM
Structure (SMILES): COc1ccc(N(C)c2cc(C)nc3ccccc23)cc1/C=C/C(=O)NOC1CCCCO1 (stereo unspecified)

GI50 (HCT-116; Homo sapiens, HCT-116): 6.3 nM
Structure (SMILES): COc1ccc(N(C)c2cc(C)nc3ccccc23)cc1/C=C/C(=O)NO

GI50 (HCT-116; Homo sapiens, HCT-116): 4.91 nM
Structure (SMILES): COc1ccc(N(C)c2cc(C#N)nc3ccccc23)cc1/C=C/C(=O)NOC1CCCCO1 (stereo unspecified)

GI50 (HCT-116; Homo sapiens, HCT-116): 10.1 nM
Structure (SMILES): C=C(c1ccc(OC)c(/C=C/C(=O)NO)c1)c1cc(C)nc2ccccc12

GI50 (HCT-116; Homo sapiens, HCT-116): 25.2 nM
Structure (SMILES): COc1ccc(N(C)c2cc(C#N)nc3ccccc23)cc1C#CCCC(=O)NO

IC50 (HCT-116; Homo sapiens, HCT-116, 72 h): 1.5 nM
IC50 (K562 [1]): 1.6 nM
IC50 (K562 [2]): 1.4 nM
IC50 (MIA PaCa-2): 6 nM
IC50 (SK-OV-3): 4 nM
IC50 (A549): 2 nM
IC50 (MCF7): 2.2 nM
IC50 (MDA-MB-231): 4.6 nM
IC50 (HT-29 [3]): 2 nM
half-life [9]: 4.42 h
microsomal CLint [10]: 2.57 µL/min/mg
half-life [11]: 14 h
microsomal CLint [12]: 0.83 µL/min/mg
Structure (SMILES): C=C(c1ccc(OC)c(/C=C/C(=O)NO)c1)c1cc(OC)c(OC)c(OC)c1
IC50 (NCI-N87): 3.2 nM
